Experimental data from ChEMBL document CHEMBL3507680, “University of Dundee, Gates Library screen for HepG2 cell viability”.

Experiment: Human HepG2 cell viability assay in 384 well format
Format: toxicity, cell-based
Design: dose 125 nL, time 70.5 hour; cytotoxicity at 70.5 h: concentration not given beside the values
Settings: HepG2 cells, read-out: Inhibition

Row | Structure (SMILES) | cytotoxicity at 70.5 h
1 | Cc1cc(CN2CCC(CNS(=O)(=O)c3ccc(C)s3)CC2)c(C)o1 | -5.87%
2 | O=C(Oc1ccccc1)N1CCC(CNS(=O)(=O)c2cccnc2)CC1 | 20.9%
3 | COc1ccc(S(=O)(=O)NCCCc2ccc(N(C)C)cc2)cc1Cl | -3.09%
4 | O=C(Cc1ccc(F)cc1)NCC1CCN(Cc2ccsc2)CC1 | -3.3%
5 | CCSc1ccccc1C(=O)NCC1CCN(Cc2ccsc2)CC1 | 2.8%
6 | Cc1nnsc1C(=O)NCC1CCN(c2ccccn2)CC1 | -8.36%
7 | COC(=O)N1CCC(CNC(=O)C2CC2)CC1 | -18.1%
8 | O=C(CC1CCCC1)NCCS(=O)(=O)N1CCN(c2ncccn2)CC1 | -11%
9 | Cc1nnc2ccc(OCCNS(C)(=O)=O)nn12 | -0.867%
10 | Cc1ccc(S(=O)(=O)NCCOc2ccc3nnc(C)n3n2)s1 | -14.5%
11 | CCc1nnc2ccc(N3CCN(S(=O)(=O)c4ccc(Cl)s4)CC3)nn12 | -19%
12 | CCc1nnc2ccc(N3CCN(S(=O)(=O)c4ccc(C)s4)CC3)nn12 | -21.3%
13 | CN(C)C(CNS(=O)(=O)c1cc(F)ccc1F)c1cccn1C (configuration not stated) | -11.3%
14 | CCc1cc(=O)[nH]c(-n2nc(C3CC3)cc2NC(=O)C2CC2)n1 | 42.7%
15 | Cc1nc(-n2nc(C3CC3)cc2NC(=O)C(C)C)[nH]c(=O)c1C | 40.2%
16 | Cc1cc(=O)[nH]c(-n2nc(C)c(CCC(=O)NCc3cccs3)c2C)n1 | -0.337%
17 | CCN(CC)CCSc1nnc(N2CCN(c3ccc(F)cc3)CC2)s1 | -5.54%
18 | CCSc1nnc(N2CCN(c3ccccc3)CC2)s1 | 0.78%
19 | CCN(CC)CCSc1nnc(N2CCN(c3ccccc3)CC2)s1 | -2.44%
20 | Cc1nnc(C2CCN(C(=O)c3ccc(-n4cccc4)cc3)CC2)s1 | 28%
21 | COc1nn(C)cc1C(=O)N1CCC(c2nnc(C(C)C)o2)CC1 | -4.14%
22 | CC(C)n1cc(C(=O)NCCN(C)C)c2n[nH]c(=O)c-2c1 | 1.2%
23 | COCCCNC(=O)c1cn(C(C)C)cc2c(=O)[nH]nc1-2 | -9.87%

Row | Structure (SMILES) | cytotoxicity at 70.5 h
24 | COCC(C)NC(=O)c1cn(C(C)C)cc2c(=O)[nH]nc1-2 (configuration not stated) | -6.59%
25 | CCCc1noc(C2CC(=O)N(Cc3ccccc3)C2)n1 (configuration not stated) | -8.97%
26 | Cc1nn(C2CCS(=O)(=O)C2)c(C)c1CC(=O)NCc1ccccc1Cl (configuration not stated) | -4.52%
27 | O=C(Nc1nc2c(s1)CCC2)NC1CCCC1 | -9.48%
28 | COCCc1nnc(NC(=O)CSCc2ccccc2)o1 | 1.82%
29 | Cc1nccn1CC1CCN(C(=O)Cc2ccccc2)CC1 | 24.1%
30 | O=S(=O)(C1CC1)N1CCC(Cn2cccn2)CC1 | -7.23%
31 | CCNC(=O)N1CCN(c2nc3ccccc3n2C)CC1 | -3.78%
32 | COCC(=O)N1CCC(c2ccc(OC)cc2)C1 (configuration not stated) | -16.3%
33 | COc1nn(C)cc1C(=O)N1CCC(c2ccccc2)C1 (configuration not stated) | -1.63%
34 | CN1CCC(CNC(=O)NCc2ccc(F)cc2)CC1 | -1.23%
35 | COc1ccccc1S(=O)(=O)NCC(c1cccn1C)N(C)C (configuration not stated) | -2.15%
36 | Cn1cccc1CN(C(=O)Cc1cccs1)C1CC1 | -2.78%
37 | Cn1cccc1C(O)CNC(=O)COc1ccccc1F (configuration not stated) | -8.88%
38 | Cn1cccc1C(O)CNC(=O)c1ccc2nsnc2c1 (configuration not stated) | -14.5%
39 | COc1cc(C)c(C)cc1S(=O)(=O)NCC(O)c1cccn1C (configuration not stated) | -5.03%
40 | COc1ccc(S(=O)(=O)NCC(O)c2sccc2C)cc1C (configuration not stated) | -3.59%
41 | O=C(Cc1ccc(F)cc1)NCC(O)(c1cccs1)C1CC1 (configuration not stated) | 13.2%
42 | O=C(NCC(O)(c1cccs1)C1CC1)NC1CCCCC1 (configuration not stated) | 10.9%
43 | Cc1noc(C)c1S(=O)(=O)NCC(C)(O)c1ccc2c(c1)OCO2 (configuration not stated) | -3.11%
44 | COc1ccc(CC(C)(O)CNC(=O)Cc2ccc(F)cc2)cc1 (configuration not stated) | -21%
45 | CC(O)(CCc1ccccc1)CNC(=O)c1cccs1 (configuration not stated) | -3.94%
46 | COc1ccc(C(=O)NCC(C)(O)CCc2ccccc2)cc1 (configuration not stated) | 3.78%

Row | Structure (SMILES) | cytotoxicity at 70.5 h
47 | O=C(NCC1(O)CCc2ccccc21)Nc1ccc2c(c1)OCO2 (configuration not stated) | -3.18%
48 | Cc1ccc(NC(=O)NCC2(O)CCCC2)cc1C | -1.58%
49 | COc1ccc(S(=O)(=O)NCCC(O)c2ccccc2)c(C)c1 (configuration not stated) | -8.64%
50 | CCOc1ccc(NC(=O)NCC(C)(O)c2cccs2)cc1 (configuration not stated) | -8.04%
51 | O=C(NCCc1ccccc1)NCC(O)c1cccs1 (configuration not stated) | -14%
52 | CC(O)(CNC(=O)c1c(F)cccc1Cl)c1ccco1 (configuration not stated) | 29.8%
53 | CCCS(=O)(=O)N1CCN(CC(F)(F)F)CC1 | -5.82%
54 | Cc1nc(C)c(CC(=O)NCc2ccc(F)cc2F)s1 | -11.3%
55 | Cc1ccnc(OCC(=O)N2CCCC2)n1 | -0.226%
56 | COc1ccc(N2CCN(C(=O)COc3nccc(C)n3)CC2)cc1 | -3.87%
57 | CN(CC(=O)NCC(F)(F)F)C(=O)c1ccc(=O)[nH]c1 | -8.21%
58 | Cc1cc(NC(=O)Cn2cnc(-c3cccs3)cc2=O)sn1 | 11.1%
59 | COc1nn(C)cc1C(=O)NCC(=O)NCc1cccnc1 | -2.92%
60 | O=S(=O)(c1cccnc1)N1CCN(CC(O)c2cccs2)CC1 (configuration not stated) | -1.48%
61 | CCS(=O)(=O)N1CC(c2nc(-c3ccncc3)no2)C1 | -2.55%
62 | O=C(c1ccccn1)N1CC[C@H]2C(=O)N(c3ccsc3)CCO[C@H]2C1 | -15.7%
63 | COc1cc(N2CCc3ncnc(-c4ccoc4)c3CC2)ncn1 | -7.42%
64 | CNC(=O)[C@H]1CC[C@@H]2[C@@H](CCN2c2ncccn2)O1 | 3.25%
65 | Cc1cc(CN2C[C@H]3CCC[C@@]3(COCC(=O)N3CCCC3)C2)no1 | -4.89%
66 | CNC(=O)N1CCN(C(=O)C(C)C)CC2(CC(=O)N(C)C2)C1 (configuration not stated) | -5.77%
67 | Cn1cccc1C(=O)N1CCC2(CC1)CCN2S(C)(=O)=O | -4.8%
68 | Cn1cccc1C(=O)N1CCC2(CCCN2S(C)(=O)=O)CC1 | -8.2%
69 | Cc1oncc1C(=O)N1CC[C@H]2CO[C@H](CN3CCCC3)[C@H]2C1 | -7.95%

Row | Structure (SMILES) | cytotoxicity at 70.5 h
70 | COc1cc(N2CC[C@H]3OCC[C@@]3(COc3nccc(C)n3)C2)ncn1 | -17.3%
71 | CCN1CC2(CC1=O)CN(C(=O)C(C)C)CCN(S(=O)(=O)CC)C2 (configuration not stated) | -4.9%
72 | CN(C)C(=O)N1CC2(CCN(S(=O)(=O)C3CC3)CC2)c2ccccc21 | 0.848%
73 | Cc1nc(C)c2c(n1)CCN(Cc1ccsc1)CC2 | -0.781%
74 | O=C(Cc1cccs1)N1CCC2(CCCN(CC3CCOCC3)C2)C1 (configuration not stated) | -6.08%
75 | CCCS(=O)(=O)N1CCC2(CC1)CN(C(=O)N(C)C)c1ccccc12 | -10.2%
76 | O=S(=O)(C1CC1)N1CCCC2(COCCN(c3nncs3)C2)C1 (configuration not stated) | 12.7%
77 | O=C(C1CCC2(CCN(c3nncs3)CC2)C1)N1CCCC1 (configuration not stated) | 9.17%
78 | CO[C@@H]1CC[C@H]2[C@H]1OCCN2S(=O)(=O)c1cn(C)cn1 | 0.221%
79 | Cc1ccc(O)c(C(=O)N2CCOCC2c2c(C)n[nH]c2C)c1 (configuration not stated) | -1.53%
80 | CCN(CCCNCc1c(C)nn(C)c1N(C)C)S(C)(=O)=O | 4.83%
81 | O=C(CCOc1ccccc1F)N1CCCC(n2cncn2)C1 (configuration not stated) | 6.03%
82 | Cc1ccccc1OCCCC(=O)N1CCCC(n2cncn2)C1 (configuration not stated) | 13%
83 | Cn1ccnc1N1CCN(C(=O)Cc2ccc(Cl)cc2)CC1 | -1.94%
84 | Cc1cc(C(=O)N2CCN(C)CC2)nn1CC(=O)NCc1ccccn1 | -8.07%
85 | Cc1cc(C(=O)NCCN2CCN(S(C)(=O)=O)CC2)no1 | -10.9%
86 | CCCc1nnsc1C(=O)N1CCN(CC(C)O)CC1 (configuration not stated) | -1.92%
87 | O=C(NCc1ccc(Cl)cc1)N1CCN(CC(O)C2CC2)CC1 (configuration not stated) | -8.1%
88 | O=C(NCc1ccc(F)cc1)N1CCN(CC(O)C2CC2)CC1 (configuration not stated) | -2.01%
89 | OC(CN1CCN(Cc2cc(F)ccc2F)CC1)C1CC1 (configuration not stated) | 0.724%
90 | OC(CN1CCN(Cc2cc(F)cc(F)c2)CC1)C1CC1 (configuration not stated) | 28.5%
91 | COCCN1CCOCC12CCN(C(=O)Cc1cccs1)CC2 | -6.94%
92 | CC1CCN(C(=O)[C@H]2C[C@@H]3CCN(CC4CCOCC4)C[C@@H]3O2)CC1 | -6.29%

Row | Structure (SMILES) | cytotoxicity at 70.5 h
93 | Cn1nc(COc2cncnc2)c2c1CCN(Cc1ccccn1)C2 | 6.46%
94 | Cn1nc(COc2cncnc2)c2c1CCN(Cc1ccco1)C2 | 6.82%
95 | CCS(=O)(=O)NC[C@]12COC[C@H]1CN(CCc1ccccc1)C2 | -5.39%
96 | CC(C)NC(=O)N1CC[C@@H](N(C)C)[C@@H]1Cc1ccccc1 | -10.3%
97 | Cc1noc(C)c1CNCC1COCc2c(-c3ccsc3)nnn2C1 (configuration not stated) | -15.2%
98 | O=C(C[C@@H]1COC[C@H]2CN(CC3CCOCC3)C[C@@H]12)N1CCCCO1 | -8.58%
99 | CC(=O)N1CCC2(CC1)COC(COCc1ccccn1)C2 (configuration not stated) | -1.84%
100 | O=C1[C@H]2CN(C3CCOCC3)C[C@H]2CN1Cc1cccc(F)c1 | 0.427%
101 | COCCN1CCC2(COCc3c(C)nc(N4CCOCC4)nc32)C1 (configuration not stated) | -1.01%
102 | COc1ccc(C(=O)N2CC[C@@H]3[C@H](CC2)N(C)CCS3(=O)=O)cc1 | -7.15%
103 | Cc1cccc(CN2C[C@@H]3CN(C4CCOCC4)C[C@@H]3C2=O)c1 | -4.96%
104 | Fc1cnccc1CN1CCC2(CCN2c2ncccn2)C1 (configuration not stated) | -7.95%
105 | Fc1cnccc1CN1CCCC2(CCN(c3ncccn3)CC2)C1 | -5.15%
106 | CCOCc1cnc2n1CCN(Cc1nc(C)cs1)C2C (configuration not stated) | -3.1%
107 | CCS(=O)(=O)NC[C@]12COC[C@H]1CN(Cc1ccncc1)C2 | -5.02%
108 | CC(C)NC(=O)N1CC[C@@H](N(C)C)[C@@H]1Cc1ccncc1 | -6.16%
109 | CS(=O)(=O)N1CCC2(CCCN(Cc3ccccn3)C2)C1 (configuration not stated) | 9.19%
110 | CN(Cc1cccnc1)C[C@@H]1OC[C@H]2CN(C(=O)C3CC3)CC[C@H]21 | -5.43%
111 | O=C1[C@H]2CN(C3CCOCC3)C[C@H]2CN1Cc1ccncc1 | -8.99%
112 | CN(Cc1cccnc1)C[C@@H]1OC[C@H]2CN(Cc3ccco3)CC[C@H]21 | -2.49%
